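Interpolation was linear, between the two tested concentrations surrounding the appropriate level; five concentrations were tested over 48 hours in 96-well plates. At the GI50, growth is halved. TGI: concentration producing complete growth inhibition.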
Columns and labels:
Test in all cases: NCI anticancer screen, dose series, 48 h
HCT-116 colon = tested on: HCT-116 colon
HCT-15 colon = tested on: HCT-15 colon
HL-60(TB) leukemia = tested on: HL-60(TB) leukemia
MDA-MB-435 = tested on: MDA-MB-435
NCI/ADR-RES ovarian = tested on: NCI/ADR-RES ovarian
OVCAR-3 ovarian = tested on: OVCAR-3 ovarian
RPMI-8226 leukemia = tested on: RPMI-8226 leukemia
T-47D breast = tested on: T-47D breast
MALME-3M melanoma = tested on: MALME-3M melanoma
SF-268 CNS = tested on: SF-268 CNS

SMILES: CC(C)(C)N(Cc1ccc2c(c1)OCO2)C(=O)/C=C\Sc1ccccc1
- TGI (HCT-116 colon): > 100 µM
- TGI (HCT-15 colon): > 100 µM
- TGI (HL-60(TB) leukemia): > 100 µM
- TGI (MDA-MB-435): > 100 µM
- TGI (NCI/ADR-RES ovarian): > 100 µM
- TGI (OVCAR-3 ovarian): > 100 µM
- TGI (RPMI-8226 leukemia): > 100 µM
- TGI (T-47D breast): > 100 µM

SMILES: CC(=O)[CH-]C(=O)c1ccccc1.CC(=O)[CH-]C(=O)c1ccccc1.C[C@]12CCC(=O)C=C1CC[C@@H]1C2CC[C@@]2(C)C1CC[C@]2(C)[O-].C[C@]12CCC(=O)C=C1CC[C@@H]1C2CC[C@@]2(C)C1CC[C@]2(C)[O-].Cl.[Ti+4] (stereo partly specified)
- GI50 (HCT-116 colon): 22.2 µM
- TGI (HCT-116 colon): > 100 µM
- GI50 (HCT-15 colon): 6.49 µM
- TGI (HCT-15 colon): 52.4 µM
- GI50 (HL-60(TB) leukemia): 2.87 µM
- TGI (HL-60(TB) leukemia): 13.1 µM
- GI50 (MALME-3M melanoma): 13.2 µM
- TGI (MALME-3M melanoma): 37.1 µM
- GI50 (OVCAR-3 ovarian): 27.9 µM
- TGI (OVCAR-3 ovarian): > 100 µM
- GI50 (RPMI-8226 leukemia): 15.4 µM
- TGI (RPMI-8226 leukemia): > 100 µM
- GI50 (SF-268 CNS): 20.7 µM
- TGI (SF-268 CNS): 75.2 µM

SMILES: CC1(C)C(=O)C(C)(C)C1=S
- TGI (HCT-116 colon): > 100 µM
- TGI (HCT-15 colon): > 100 µM
- TGI (HL-60(TB) leukemia): > 100 µM
- TGI (MALME-3M melanoma): > 100 µM
- TGI (OVCAR-3 ovarian): > 100 µM
- TGI (RPMI-8226 leukemia): > 100 µM
- TGI (SF-268 CNS): > 100 µM

SMILES: Nc1ncnc2c1ncn2C1CC(OCc2ccccc2[N+](=O)[O-])C(CO)O1 (stereo unspecified)
- TGI (HCT-116 colon): > 50 µM
- TGI (HCT-15 colon): > 50 µM
- TGI (HL-60(TB) leukemia): 31.6 µM
- TGI (MALME-3M melanoma): > 50 µM
- TGI (OVCAR-3 ovarian): > 50 µM
- TGI (RPMI-8226 leukemia): > 50 µM
- TGI (SF-268 CNS): > 50 µM

SMILES: CC1=NC(=Cc2ccc([N+](=O)[O-])cc2)C(=O)N1n1c(-c2ccccc2)nc2ccccc2c1=O
- TGI (HCT-116 colon): > 100 µM
- TGI (HCT-15 colon): > 100 µM
- TGI (HL-60(TB) leukemia): 88.4 µM
- TGI (MALME-3M melanoma): > 100 µM
- TGI (MDA-MB-435): > 100 µM
- TGI (RPMI-8226 leukemia): 53.6 µM
- TGI (SF-268 CNS): > 100 µM
- TGI (T-47D breast): > 100 µM

SMILES: CCOC(=O)C1=COC(C)(CCc2ccccc2)CC1=O (stereo unspecified)
- TGI (HCT-116 colon): > 100 µM
- TGI (HCT-15 colon): > 100 µM
- TGI (MDA-MB-435): > 100 µM
- TGI (NCI/ADR-RES ovarian): > 100 µM
- TGI (OVCAR-3 ovarian): > 100 µM
- TGI (RPMI-8226 leukemia): > 100 µM
- TGI (SF-268 CNS): > 100 µM
- TGI (T-47D breast): > 100 µM

SMILES: O=C(CCc1ccccc1)ON1C(=S)C(c2ccccc2)(c2ccccc2)N=C1Sc1ccccc1
- TGI (HCT-116 colon): > 100 µM
- TGI (HCT-15 colon): > 100 µM
- TGI (HL-60(TB) leukemia): > 100 µM
- TGI (MALME-3M melanoma): > 100 µM
- TGI (NCI/ADR-RES ovarian): > 100 µM
- TGI (OVCAR-3 ovarian): > 100 µM
- TGI (RPMI-8226 leukemia): 74.6 µM
- TGI (SF-268 CNS): > 100 µM
- TGI (T-47D breast): > 100 µM

SMILES: O=C1C(CN2CCOCC2)CCCC1CN1CCOCC1 (stereo unspecified)
- TGI (HCT-116 colon): 2.83 µM
- TGI (HCT-15 colon): 3.2 µM
- TGI (HL-60(TB) leukemia): 1.78 µM
- TGI (MALME-3M melanoma): 2.04 µM
- TGI (MDA-MB-435): 27.5 µM
- TGI (OVCAR-3 ovarian): 8.21 µM
- TGI (RPMI-8226 leukemia): 2.34 µM
- TGI (SF-268 CNS): 43.3 µM

SMILES: O=C(NNc1ccccc1)/C(=C/c1ccc2c(c1)OCO2)NC(=O)c1ccccc1
- TGI (HCT-116 colon): > 100 µM
- TGI (HCT-15 colon): > 100 µM
- TGI (HL-60(TB) leukemia): > 100 µM
- TGI (MALME-3M melanoma): > 100 µM
- TGI (OVCAR-3 ovarian): > 100 µM
- TGI (RPMI-8226 leukemia): > 100 µM
- TGI (SF-268 CNS): > 100 µM

SMILES: N#C/C(=C/NC(=S)c1ccncc1)C(N)=O
- TGI (HCT-116 colon): > 100 µM
- TGI (HCT-15 colon): > 100 µM
- TGI (HL-60(TB) leukemia): > 100 µM
- TGI (MDA-MB-435): > 100 µM
- TGI (NCI/ADR-RES ovarian): > 100 µM
- TGI (OVCAR-3 ovarian): > 100 µM
- TGI (SF-268 CNS): > 100 µM
- TGI (T-47D breast): > 100 µM

SMILES: O=P(O)(O)C1(P(=O)(O)O)CC1
- TGI (HCT-116 colon): > 100 µM
- TGI (HCT-15 colon): > 100 µM
- TGI (MALME-3M melanoma): > 100 µM
- TGI (OVCAR-3 ovarian): > 100 µM
- TGI (RPMI-8226 leukemia): > 100 µM
- TGI (SF-268 CNS): > 100 µM

SMILES: Nc1c(Cl)ncnc1NCCCNc1ncnc(Cl)c1N
- TGI (HCT-116 colon): > 100 µM
- TGI (HCT-15 colon): > 100 µM
- TGI (HL-60(TB) leukemia): > 100 µM
- TGI (OVCAR-3 ovarian): > 100 µM
- TGI (RPMI-8226 leukemia): > 100 µM
- TGI (SF-268 CNS): > 100 µM

— PubChem BioAssay (NCI)
